Laboratory results reported in patent US20240132480A1, “INHIBITORS OF MYCOBACTERIUM TUBERCULOSIS LIPOAMIDE DEHYDROGENASE” (Cornell University, priority 2021, published 2024).
Where two headings read alike, the source gives them in different places.

Experiments:
[1] = microsomes
[2] = target: Mtb Lpd (Mycobacterium tuberculosis (strain ATCC 25618 / H37Rv), UniProt P9WHH9); assay type: biochemical
[3] = 30 min preincubation, read-out: LPD IC50 (μM) w/ 30 min preincubation

Structure (SMILES)	Human Liver Microsome Stability [1] [µL/min/mg]	IC50 ([2]; read-out: LPD IC50) [µM]	IC50 [2, 3] [µM]
CN(CC(=O)Nc1ccc2c(c1)OCCN2C1CCOCC1)S(=O)(=O)c1cc(Cl)cc2cn[nH]c12 [Example 166]	122	0.034	–
CC#CCNC(=O)[C@@H]1CCN1S(=O)(=O)c1cc(C)cc2cn[nH]c12 [Example 200]	13	0.379	–
Cc1cc(S(=O)(=O)N2CC[C@H]2C(=O)Nc2ccc(N3CCOCC3)c(Cl)c2)c2[nH]c(C#N)cc2c1 [Example 195]	64	0.111	–
Cn1ccc(NC(=O)[C@@H]2CCN2S(=O)(=O)c2cc(C=O)cc3c(F)n[nH]c23)cc1=O [Example 186, (S)-1-((3-fluoro-5-formyl-1H-indazol-7-yl)sulfonyl)-N-(1-methyl-2-oxo-1,2-dihydropyridin-4-yl)azetidine-2-carboxamide]	153	1.04	–
COc1ccc(NC(=O)CN(C)S(=O)(=O)c2cc(C)cc3cc(C#N)[nH]c23)cn1 [Example 216, 2-((2-cyano-N,5-dimethyl-1H-indole)-7-sulfonamido)-N-(6-methoxypyridin-3-yl)acetamide]	49	–	0.02
CCN(CC(=O)NC1=CC(=O)C(C)C=C1)S(=O)(=O)c1cc(C)cc2cn[nH]c12 (centres unmarked) [Example 45]	39	0.0268	–
Cc1cc(S(=O)(=O)N(C)CC(=O)Nc2ccn3nccc3c2)c2[nH]ncc2c1 [Example 25]	275	0.0204	–
Cc1cc(S(=O)(=O)N2CC[C@H]2C(=O)NC2CCN(C)CC2)c2[nH]ncc2c1 [Example 129]	418	6.56	–
Cc1cc(S(=O)(=O)N(C)CC(=O)Nc2ccn(C)c(=O)c2)c2n[nH]c(Cl)c2c1 [Example 176, 2-((3-chloro-N,5-dimethyl-1H-indazole)-7-sulfonamido)-N-(1-methyl-2-oxo-1,2-dihydropyridin-4-yl)acetamide]	34	0.252	–
CCN(CC(=O)Nc1ccc2c(c1)OCCN2C1CCOCC1)S(=O)(=O)c1cc(C)cc2c[nH]nc12 [Example 156]	58	0.0274	–
O=C(Nc1ccc(N2CCOCC2)c(Cl)c1)[C@H]1CCN1S(=O)(=O)c1cc(C(F)F)cc2cn[nH]c12 [Example 191, (2R)—N-(3-chloro-4-morpholino-phenyl)-1-[[5-(difluoromethyl)-1H-indazol-7-yl]sulfonyl]azetidine-2-carboxamide]	98	> 10	–
Cc1cc(S(=O)(=O)N(C)CC(=O)Nc2cc(=O)n3c(n2)CCCC3)c2[nH]c(C#N)cc2c1 [Example 224, 2-((2-cyano-N,5-dimethyl-1H-indole)-7-sulfonamido)-N-(4-oxo-6,7,8,9-tetrahydro-4H-pyrido[1,2-a]pyrimidin-2-yl)acetamide]	61	–	0.022
Cc1cc(S(=O)(=O)N2CC[C@H]2C(=O)Nc2ccc3cnccc3c2)c2[nH]ncc2c1 [Example 85]	93	0.023	–
Cc1cc(S(=O)(=O)N(CC(=O)NC2=CC(=O)C(C)C=C2)C(C)C)c2[nH]ncc2c1 (centres unmarked) [Example 47]	-9	0.434	–
CC(C)(CO)N1CCOc2cc(NC(=O)[C@@H]3CCN3S(=O)(=O)c3cc(C(F)F)cc4cn[nH]c34)ccc21 [Example 177]	177	0.197	–
Cc1cc(S(=O)(=O)N2CCC[C@H]2C(=O)Nc2ccn(C)c(=O)c2)c2[nH]ncc2c1 [Example 7]	18	0.0513	–
CNCc1n[nH]c2c(S(=O)(=O)N(C)CC(=O)Cc3ccn(C)c(=O)c3)cc(C)cc12 [Example 44]	-2	0.13	–
Cn1ccc(NC(=O)[C@@H]2CCN2S(=O)(=O)c2cc(C(F)F)cc3cn[nH]c23)cc1=O [Example 152, (S)-1-((5-(difluoromethyl)-1H-indazol-7-yl)sulfonyl)-N-(1-methyl-2-oxo-1,2-dihydropyridin-4-yl)azetidine-2-carboxamide]	-7	0.058	–
Cc1cc(S(=O)(=O)N(C)CC(=O)Nc2ccc3cccnc3c2)c2n[nH]cc2c1 [Example 61]	122	0.0229	–
Cc1cc(S(=O)(=O)N(C)CC(=O)Nc2ccn3cccc3c2)c2[nH]ncc2c1 [Example 46, 2-((N,5-dimethyl-1H-indazole)-7-sulfonamido)-N-(imidazo[1,5-a]pyridin-7-yl)acetamide]	4	0.0067	–
COc1ccc(NC(=O)CN(C)S(=O)(=O)c2cc(C)cc3c(C)n[nH]c23)cc1C [Example 9]	>768	0.0273	–

Structure (SMILES)	Human Liver Microsome Stability [1] [µL/min/mg]	IC50 ([2]; read-out: LPD IC50) [µM]	IC50 [2, 3] [µM]
Cc1cc(S(=O)(=O)N2CC[C@H]2C(=O)Nc2ccc(OCCN(C)C)c(Cl)c2)c2[nH]ncc2c1 [Example 168]	1	0.143	–
Cc1cc(S(=O)(=O)N(C)CC(=O)Nc2ccc3ccncc3c2)c2n[nH]cc2c1 [Example 63]	63	0.0321	–
CCc1ccc(NC(=O)CN(C)S(=O)(=O)c2cc(C)cc3cc[nH]c23)cc1C [Example 21]	328	0.136	–
COc1ccc(NC(=O)CN(C)S(=O)(=O)c2cc(C(F)F)cc3cn[nH]c23)cc1C [Example 8]	534	0.0263	–
Cc1cc(S(=O)(=O)N2CC[C@@H](C(=O)Nc3ccc4c(c3)OCCN4C3COC3)C2)c2[nH]ncc2c1 [Example 123]	23	0.0286	–
Cc1cc(S(=O)(=O)N(C)CC(=O)Nc2ccn3cnnc3c2)c2n[nH]cc2c1 [Example 102]	31	0.042	–
Cc1cc(S(=O)(=O)N(C)CC(=O)Nc2ccc3c(c2)OCCN3C2CCOCC2)c2n[nH]c(F)c2c1 [Example 121]	125	0.0253	–
Cc1cc(NC(=O)CN(C)S(=O)(=O)c2c(C)c(C)cc3cn[nH]c23)ccc1N1CCOCC1 [Example 19]	253	0.0469	–
Cc1cc(S(=O)(=O)N(C)CC(=O)Nc2ccc(N3CCOCC3)c(Cl)c2)c2[nH]c(C#N)cc2c1 [Example 198]	137	0.087	–
Cc1cc(S(=O)(=O)N2CCC2C(=O)Nc2ccc(OCCN(C)C)c(C)c2)c2[nH]c(C#N)cc2c1 (centres unmarked) [Example 207]	-7	0.225	0.06
Cc1cc2c(c(S(=O)(=O)N(C)CC(=O)Nc3ccc(N4CCCCC4)c(C)c3)c1)CC=C2 [Example 11]	105	0.0341	–
C#CCNC(=O)[C@@H]1CCN1S(=O)(=O)c1cc(C)cc2cn[nH]c12 [Example 201]	14	0.222	–
Cc1cc(S(=O)(=O)N2CCC(C(=O)Nc3ccn(C)c(=O)c3)C2)c2[nH]ncc2c1 (centres unmarked) [Example 97]	-5	0.0419	–
CN(CC(=O)Nc1ccn(C)c(=O)c1)S(=O)(=O)c1cc(C(F)F)cc2c(F)n[nH]c12 [Example 183, 2-((5-(difluoromethyl)-3-fluoro-N-methyl-1H-indazole)-7-sulfonamido)-N-(1-methyl-2-oxo-1,2-dihydropyridin-4-yl)acetamide]	-15	0.231	–
CN(CC(=O)Nc1ccn(C)c(=O)c1)S(=O)(=O)c1cc(Cl)cc2c(F)n[nH]c12 [Example 150]	1	0.046	–
Cc1cc(S(=O)(=O)N(C)CC(=O)Nc2ccn(C)c(=O)c2)c2[nH]nc(C)c2c1 [Example 36]	-26	0.0657	–
Cc1cc(S(=O)(=O)N2CC[C@H]2C(=O)NCC#N)c2[nH]ncc2c1 [Example 202]	4	0.323	–
Cc1cc(S(=O)(=O)N(C)CC(=O)Nc2ccn3ccnc3c2)c2[nH]ncc2c1 [Example 26]	154	0.0628	–
Cc1cc(S(=O)(=O)N(C)CC(=O)Nc2ccc(C3CCN(C4COC4)CC3)c(Cl)c2)c2[nH]ncc2c1 [Example 193, N-(3-chloro-4-(1-(oxetan-3-yl)piperidin-4-yl)phenyl)-2-((N,5-dimethyl-1H-indazole)-7-sulfonamido)acetamide]	73	0.053	–
Cc1cc(S(=O)(=O)N(C)CC(=O)Nc2cccc(N3CCCCC3=O)c2)c2[nH]c(C#N)cc2c1 [Example 219]	150	–	0.03
